What was measured:
beta-galactosidase = beta-galactosidase (Escherichia coli, UniProt P00722); assay: droplet microfluidic steady-state Michaelis–Menten kinetics; format: biochemical
purified protein = substrate: CC(=O)N1c2ccc(O)cc2Oc2cc(O)ccc21; assay: purified protein; conditions: H2O2 (co-substrate)

beta-galactosidase, sequence (P00722 2-1024): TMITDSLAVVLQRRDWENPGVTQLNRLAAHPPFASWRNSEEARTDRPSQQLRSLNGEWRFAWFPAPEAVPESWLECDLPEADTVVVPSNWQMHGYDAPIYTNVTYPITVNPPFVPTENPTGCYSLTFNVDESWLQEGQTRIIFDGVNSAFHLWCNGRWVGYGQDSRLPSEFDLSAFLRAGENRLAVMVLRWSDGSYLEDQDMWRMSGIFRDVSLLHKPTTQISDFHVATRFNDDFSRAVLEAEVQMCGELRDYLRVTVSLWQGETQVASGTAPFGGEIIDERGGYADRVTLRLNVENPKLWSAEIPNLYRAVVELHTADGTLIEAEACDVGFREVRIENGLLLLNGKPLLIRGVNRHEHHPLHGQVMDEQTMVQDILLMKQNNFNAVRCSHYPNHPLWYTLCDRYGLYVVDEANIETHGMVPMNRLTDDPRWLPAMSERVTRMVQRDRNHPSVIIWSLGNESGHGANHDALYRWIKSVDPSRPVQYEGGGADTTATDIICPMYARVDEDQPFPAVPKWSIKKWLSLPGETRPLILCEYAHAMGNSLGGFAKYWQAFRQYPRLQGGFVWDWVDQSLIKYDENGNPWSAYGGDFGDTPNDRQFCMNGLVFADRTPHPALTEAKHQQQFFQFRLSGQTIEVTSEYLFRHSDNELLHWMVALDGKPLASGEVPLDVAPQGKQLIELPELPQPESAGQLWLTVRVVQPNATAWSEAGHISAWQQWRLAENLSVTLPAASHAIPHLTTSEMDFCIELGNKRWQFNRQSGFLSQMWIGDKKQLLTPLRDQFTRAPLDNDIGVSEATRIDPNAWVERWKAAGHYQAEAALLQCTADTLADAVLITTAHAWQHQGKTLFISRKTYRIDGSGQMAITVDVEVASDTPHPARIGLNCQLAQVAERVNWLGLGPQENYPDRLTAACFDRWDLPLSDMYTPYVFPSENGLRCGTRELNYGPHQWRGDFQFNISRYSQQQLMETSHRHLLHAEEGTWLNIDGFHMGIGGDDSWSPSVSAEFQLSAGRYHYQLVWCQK

Molecule | Km (beta-galactosidase) [µM] | Km (purified protein) [µM]
O=C1OC2(c3ccc(O[C@@H]4O[C@H](CO)[C@H](O)[C@H](O)[C@H]4O)cc3Oc3cc(O[C@@H]4O[C@H](CO)[C@H](O)[C@H](O)[C@H]4O)ccc32)c2ccccc21 [Fluorescein di-beta-D-galactopyranoside] | 19.8 ± 1.4 | 
O=c1ccc2nc3ccc(O[C@@H]4O[C@H](CO)[C@H](O)[C@H](O)[C@H]4O)cc3oc-2c1 [resorufin beta-D-galactopyranoside] | 408 ± 140 | 
horseradish peroxidase (Armoracia rusticana) (protein) QLTPTFYDNSCPNVSNIVRDTIVNELRSDPRIAASILRLHFHDCFVNGCDASILLDNTTSFRTEKDAFGNANSARGFPVIDRMKAAVESACPRTVSCADLLTIAAQQSVTLAGGPSWRVPLGRRDSLQAFLDLANANLPAPFFTLPQLKDSFRNVGLNRSSDLVALSGGHTFGKNQCRFIMDRLYNFSNTGLPDPTLNTTYLQTLRGLCPLNGNLSALVDFDLRTPTIFDNKYYVNLEEQKGLIQSDQELFSSPNATDTIPLVRSFANSTQTFFNAFVEAMDRMGNITPLTGTQGQIRLNCRVVNSNS |  | 20 ± 1.8
